According to paper PMC1459931, “Assessment of Xenoestrogens Using Three Distinct Estrogen Receptors and the Zebrafish Brain Aromatase Gene in a Highly Responsive Glial Cell System” (Environmental Health Perspectives, 2005):

Experiments:
Test in all cases: luciferase reporter transactivation (zebrafish Aro-B promoter) in transfected U251-MG cells
Format in all cases: cell-based
Details in all cases: agonist; 48 hr, 37°C, 2% charcoal/dextran FCS
[1] = target: T1, zfER-β2 (zebrafish ER-β2) (Danio rerio, UniProt Q7ZU32)
T1 construct: gene esr2a; coding region of receptor cDNA in Topo-pcDNA3 (Menuet et al. 2002), transiently expressed in human U251-MG glial cells; approx. 65 kDa; ER-β2 of Menuet et al. corresponds to esr2a (esr2b is ER-β1)
T1 sequence (Q7ZU32 1-553): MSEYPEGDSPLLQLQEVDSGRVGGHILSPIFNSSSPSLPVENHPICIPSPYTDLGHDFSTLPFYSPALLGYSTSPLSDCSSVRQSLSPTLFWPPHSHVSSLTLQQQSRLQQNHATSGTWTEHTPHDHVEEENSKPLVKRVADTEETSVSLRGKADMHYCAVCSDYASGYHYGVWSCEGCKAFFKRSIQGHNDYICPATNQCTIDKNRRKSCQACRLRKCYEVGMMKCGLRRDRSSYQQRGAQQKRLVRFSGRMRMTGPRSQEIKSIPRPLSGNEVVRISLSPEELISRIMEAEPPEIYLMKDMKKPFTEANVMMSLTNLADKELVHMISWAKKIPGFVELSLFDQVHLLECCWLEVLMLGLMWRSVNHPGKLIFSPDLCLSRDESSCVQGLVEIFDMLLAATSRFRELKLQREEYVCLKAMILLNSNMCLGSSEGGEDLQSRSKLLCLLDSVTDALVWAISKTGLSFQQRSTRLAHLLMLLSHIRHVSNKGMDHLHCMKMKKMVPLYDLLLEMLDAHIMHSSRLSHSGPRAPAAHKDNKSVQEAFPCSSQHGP
Source text: luciferase reporter transactivation (zebrafish Aro-B promoter) in transfected U251-MG cells on zfER-β2 (zebrafish ER-β2)

[2] = target: T2, zfER-β1 (zebrafish ER-β1) (Danio rerio, UniProt Q5PR29)
T2 construct: gene esr2b; coding region of receptor cDNA in Topo-pcDNA3 (Menuet et al. 2002), transiently expressed in human U251-MG glial cells; approx. 65 kDa; ER-β1 of Menuet et al. corresponds to esr2b (esr2a is ER-β2)
T2 sequence (Q5PR29 1-592): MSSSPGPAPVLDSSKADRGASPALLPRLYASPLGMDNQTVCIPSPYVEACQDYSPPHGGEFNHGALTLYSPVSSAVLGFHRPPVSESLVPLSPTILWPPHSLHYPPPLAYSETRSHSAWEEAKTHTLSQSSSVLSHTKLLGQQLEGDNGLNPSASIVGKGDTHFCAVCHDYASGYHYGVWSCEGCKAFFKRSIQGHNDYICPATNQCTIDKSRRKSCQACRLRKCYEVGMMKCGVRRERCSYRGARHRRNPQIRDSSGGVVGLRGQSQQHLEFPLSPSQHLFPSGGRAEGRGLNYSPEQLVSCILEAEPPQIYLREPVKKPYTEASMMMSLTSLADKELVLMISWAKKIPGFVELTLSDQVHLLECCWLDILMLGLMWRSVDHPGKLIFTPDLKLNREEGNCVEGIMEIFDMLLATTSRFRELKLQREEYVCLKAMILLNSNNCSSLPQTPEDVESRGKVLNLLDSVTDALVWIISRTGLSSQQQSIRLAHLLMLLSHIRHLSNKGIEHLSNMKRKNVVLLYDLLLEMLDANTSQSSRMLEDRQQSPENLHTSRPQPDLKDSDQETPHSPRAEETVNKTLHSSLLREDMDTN
Source text: luciferase reporter transactivation (zebrafish Aro-B promoter) in transfected U251-MG cells on zfER-β1 (zebrafish ER-β1)

zfER-α (zebrafish ER-α) = target: T3, zfER-α (zebrafish ER-α) (Danio rerio, UniProt P57717)
T3 construct: gene esr1; coding region of receptor cDNA in Topo-pcDNA3 (Menuet et al. 2002), transiently expressed in human U251-MG glial cells; approx. 65 kDa in vitro translated
T3 sequence (P57717 1-569): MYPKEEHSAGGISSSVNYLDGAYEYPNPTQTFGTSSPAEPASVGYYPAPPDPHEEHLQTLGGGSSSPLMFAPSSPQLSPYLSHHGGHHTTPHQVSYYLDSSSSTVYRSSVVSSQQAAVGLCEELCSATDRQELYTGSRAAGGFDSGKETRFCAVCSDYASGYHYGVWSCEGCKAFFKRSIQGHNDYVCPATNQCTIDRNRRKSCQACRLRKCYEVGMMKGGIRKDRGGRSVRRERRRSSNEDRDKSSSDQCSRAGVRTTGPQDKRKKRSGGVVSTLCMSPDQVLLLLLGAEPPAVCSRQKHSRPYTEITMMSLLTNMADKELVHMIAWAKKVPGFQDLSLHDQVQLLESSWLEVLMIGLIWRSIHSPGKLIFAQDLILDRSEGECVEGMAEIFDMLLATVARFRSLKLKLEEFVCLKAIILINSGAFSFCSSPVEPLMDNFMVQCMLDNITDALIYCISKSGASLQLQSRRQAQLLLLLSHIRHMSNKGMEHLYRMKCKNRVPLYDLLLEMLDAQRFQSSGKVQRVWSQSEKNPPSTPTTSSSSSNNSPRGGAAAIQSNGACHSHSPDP
Source text: luciferase reporter transactivation (zebrafish Aro-B promoter) in transfected U251-MG cells on zfER-α (zebrafish ER-α)

Structure (SMILES): C[C@H]1CCC[C@H](O)CCC/C=C/c2cc(O)cc(O)c2C(=O)O1 [α-Zeralenol]
- EC50 [1]: 0.15 nM
- EC50 [2]: 0.11 nM
- EC50 (zfER-α (zebrafish ER-α)): 0.59 nM
